Laboratory results from US8076356B2, “Triazolopyridinylsulfanyl derivatives as P38 map kinase inhibitors” (Pfizer Inc., priority 2004, dated 2011).

Tested on: TNFα release from human peripheral blood mononuclear cells
Assay: TNFα screen
Assay type: cell-based
Conditions: LPS-stimulated human peripheral blood mononuclear cells, 18 hours incubation, TNFα in supernatant by ELISA; read-out: TNF IC50
Method: Venous blood is collected from healthy volunteers and the mononuclear cells purified by centrifugation through Histopaque (Ficoll) cushions. TNFα production from these cells is stimulated by addition of lipopolysaccharide. After 18 hours incubation in the presence of LPS, the cell supernatant is removed and the concentration of TNFα in the supernatant determined by ELISA.

Row | IC50 [nM] | SMILES
1 | 1.4 | CSC(C)(C)c1cc(NC(=O)NCc2ccccc2Sc2ccc3nnc(-c4ccc(C)cc4O)n3c2)n(-c2cccc(C)c2)n1 [Example 151]
2 | 0.8 | CC(C)(C)c1cc(NC(=O)NCc2ccccc2Sc2ccc3nnc(-c4cc(O)ccc4Cl)n3c2)n(-c2ccc(F)c(F)c2)n1 [Example 78]
3 | 0.9 | CC(C)(C)c1cc(NC(=O)NCc2ccccc2Sc2ccc3nnc(-c4ccccc4O)n3c2)n(-c2cccc(O)c2)n1 [Example 55]
4 | 0.7 | CC(C)(C)c1cc(NC(=O)NCc2ccccc2Sc2ccc3nnc(-c4ccccc4Cl)n3c2)n(-c2cccc(O)c2)n1 [Example 54]
5 | 1.2 | Cc1cc(O)cc(-n2nc(C(C)(C)C)cc2NC(=O)NCc2ccccc2Sc2ccc3nnc(C(C)C)n3c2)c1 [Example 57]
6 | 1.4 | CC(C)(C)c1cc(NC(=O)NCc2ccccc2Sc2ccc3nnc(-c4ccccc4F)n3c2)n(-c2ccc(OCCO)cc2)n1 [Example 141]
7 | 4.6 | Cc1cc(OCc2ccccc2)cc(-n2nc(C(C)(C)C)cc2NC(=O)NCc2ccccc2Sc2ccc3nnc(C(C)C)n3c2)c1 [Example 124]
8 | 1.4 | CSCC(C)(C)c1cc(NC(=O)NCc2ccccc2Sc2ccc3nnc(-c4ccccc4O)n3c2)n(-c2ccccc2)n1 [Example 60]
9 | 80 | CSC(C)(C)c1cc(NC(=O)NCc2ccccc2Sc2ccc3nnc(C(C)C)n3c2)n(-c2ccc(OCCO)cc2)n1 [Example 125]
10 | 15.7 | CNC(=O)c1ccc(-n2nc(C(C)(C)C)cc2NC(=O)NCc2ccccc2Sc2ccc3nnc(C(C)C)n3c2)cc1 [Example 118]
11 | 0.7 | CCC(C)(C)c1cc(NC(=O)NCc2ccccc2Sc2ccc3nnc(-c4ccccc4O)n3c2)n(-c2cccnc2)n1 [Example 182]
12 | 0.8 | CC(C)c1nnc2ccc(Sc3ccccc3CNC(=O)Nc3cc(C(C)(C)C)nn3-c3ccc(Cl)c(O)c3)cn12 [Example 76]
13 | 1.2 | CC(C)c1ccccc1-c1nnc2ccc(Sc3ccccc3CNC(=O)Nc3cc(C(C)(C)C)nn3-c3ccc(O)cc3)cn12 [Example 144]
14 | 21 | CC(C)c1nnc2ccc(Sc3ccccc3CNC(=O)Nc3cc(C(C)(C)C)nn3-c3ccccn3)cn12 [Example 180]
15 | 3.7 | CC(C)(C)c1cc(NC(=O)NCc2ccccc2Sc2ccc3nnc(-c4cccc(O)c4Cl)n3c2)n(-c2ccc(F)c(F)c2)n1 [Example 128]
16 | 4.8 | CSC(C)(C)c1cc(NC(=O)NCc2ccccc2Sc2ccc3nnc(-c4cccc(Cl)c4O)n3c2)n(-c2ccc(C)cc2)n1 [Example 153]
17 | 1.3 | CSCC(C)(C)c1cc(NC(=O)NCc2ccccc2Sc2ccc3nnc(-c4ccccc4O)n3c2)n(-c2cccc(OCCO)c2)n1 [Example 59]

Same assay, conditions: PBMC; LPS-stimulated human peripheral blood mononuclear cells, 18 hours incubation, TNFα in supernatant by ELISA; read-out: TNF IC50

Row | IC50 [nM] | SMILES
18 | 2 | COc1ccc(-n2nc(C(C)(C)C)cc2NC(=O)NCc2ccccc2Sc2ccc3nnc(C(C)C)n3c2)cc1Cl [Example 33, N-[3-tert-Butyl-1-(3-chloro-4-methoxyphenyl)-1H-pyrazol-5-yl]-N′-{2-[(3-isopropyl[1,2,4]triazolo[4,3-a]pyridin-6-yl)thio]-benzyl}urea]
19 | 0.6 | CSC(C)(C)c1cc(NC(=O)NCc2ccccc2Sc2ccc3nnc(-c4cc(Cl)ccc4O)n3c2)n(-c2ccc(C)cc2)n1 [Example 87, N-(2-{[3-(5-Chloro-2-hydroxyphenyl)[1,2,4]triazolo[4,3-a]pyridin-6-yl]thio}benzyl)-N′-[3-[1-methyl-1-(methylthio)ethyl]-1-(4-methylphenyl)-1H-pyrazol-5-yl]urea]
20 | 1.2 | CSC(C)(C)c1cc(NC(=O)NCc2ccccc2Sc2ccc3nnc(-c4ccccc4F)n3c2)n(-c2ccc(O)cc2)n1 [Example 109, N-(2-{[3-(2-Fluorophenyl)[1,2,4]triazolo[4,3-a]pyridin-6-yl]thio}benzyl)-N′-{1-(4-hydroxyphenyl)-3-[1-methyl-1-(methylthio)ethyl]-1H-pyrazol-5-yl}urea]
21 | 1.7 | CCc1ccccc1-c1nnc2ccc(Sc3ccccc3CNC(=O)Nc3cc(C(C)(C)SC)nn3-c3cccc(OCCO)c3)cn12 [Example 102, N-(2-{[3-(2-Ethylphenyl)[1,2,4]triazolo[4,3-a]pyridin-6-yl]thio}benzyl)-N′-{1-[3-(2-hydroxyethoxy)phenyl]-3-[1-methyl-1-(methylthio)ethyl]-1H-pyrazol-5-yl}urea]
22 | 1.6 | CSC(C)(C)c1cc(NC(=O)NCc2ccccc2Sc2ccc3nnc(C(C)C)n3c2)n(-c2cccc(O)c2)n1 [Example 26, N-{1-(3-Hydroxyphenyl)-3-[1-methyl-1-(methylthio)ethyl]-1H-pyrazol-5-yl}-N′-{2-[(3-isopropyl[1,2,4]triazolo[4,3-a]pyridin-6-yl)thio]benzyl}urea]
23 | 1 | CCc1ccccc1-c1nnc2ccc(Sc3ccccc3CNC(=O)Nc3cc(C(C)(C)C)nn3-c3cccc(OCCO)c3)cn12 [Example 104, N-{3-tert-Butyl-1-[3-(2-hydroxyethoxy)phenyl]-1H-pyrazol-5-yl}-N′-(2-{[3-(2-ethylphenyl)[1,2,4]triazolo[4,3-a]pyridin-6-yl]thio}benzyl)urea]
24 | 0.4 | COc1cccc(-n2nc(C(C)(C)C)cc2NC(=O)NCc2ccccc2Sc2ccc3nnc(-c4ccccc4O)n3c2)c1 [Example 98, N-[3-tert-Butyl-1-(3-methoxyphenyl)-1H-pyrazol-5-yl]-N′-(2-{[3-(2-hydroxyphenyl)[1,2,4]triazolo[4,3-a]pyridin-6-yl]thio}benzyl)urea]
25 | 3 | CC(C)(C)c1cc(NC(=O)NCc2ccccc2Sc2ccc3nnc(-c4ccccc4O)n3c2)n(-c2ccccn2)n1 [Example 71, N-(3-tert-Butyl-1-pyridin-2-yl-1H-pyrazol-5-yl)-N′-(2-{[3-(2-hydroxyphenyl)[1,2,4]triazolo[4,3-a]pyridin-6-yl]thio}benzyl)urea]
26 | 1.1 | CCC(C)(C)c1cc(NC(=O)NCc2ccccc2Sc2ccc3nnc(-c4ccccc4O)n3c2)n(-c2cccc(OCCO)c2)n1 [Example 100]
27 | 0.8 | CSC(C)(C)c1cc(NC(=O)NCc2ccccc2Sc2ccc3nnc(-c4cc(Cl)ccc4O)n3c2)n(-c2cccc(C)c2)n1 [Example 86, N-(2-{[3-(5-Chloro-2-hydroxyphenyl)[1,2,4]triazolo[4,3-a]pyridin-6-yl]thio}benzyl)-N′-[3-[1-methyl-1-(methylthio)ethyl]-1-(3-methylphenyl)-1H-pyrazol-5-yl]urea]
28 | 0.8 | CC(C)(C)c1cc(NC(=O)NCc2ccccc2Sc2ccc3nnc(-c4ccccc4O)n3c2)n(-c2ccc(F)cc2)n1 [Example 46, N-[3-tert-Butyl-1-(4-fluorophenyl)-1H-pyrazol-5-yl]-N′-(2-{[3-(2-hydroxyphenyl)[1,2,4]triazolo[4,3-a]pyridin-6-yl]thio}benzyl)urea]
29 | 1.3 | CC(C)c1nnc2ccc(Sc3ccccc3CNC(=O)Nc3cc(C(C)(C)C)nn3-c3cccnc3)cn12 [Example 34, N-(3-tert-Butyl-1-pyridin-3-yl-1H-pyrazol-5-yl)-N′-{2-[(3-isopropyl[1,2,4]triazolo[4,3-a]pyridin-6-yl)thio]benzyl}-urea]
30 | 4.8 | Cc1ccc(-n2nc(C(C)(C)C)cc2NC(=O)NCc2ccccc2Sc2ccc3nnc(-c4cccc(O)c4Cl)n3c2)cc1 [Example 36, N-[3-tert-Butyl-1-(4-methylphenyl)-1H-pyrazol-5-yl]-N′-(2-{[3-(2-chloro-3-hydroxyphenyl)[1,2,4]triazolo[4,3-a]pyridin-6-yl]thio}benzyl)urea]
31 | 2.8 | CSC(C)(C)c1cc(NC(=O)NCc2ccccc2Sc2ccc3nnc(C(C)C)n3c2)n(-c2cccc(OCCO)c2)n1 [Example 37]
